According to ChEMBL document CHEMBL1153894, “Chloroquine-astemizole hybrids with potent in vitro and in vivo antiplasmodial activity” (Bioorg Med Chem Lett, 2009):

What was measured:
[1] = Selectivity ratio of cytotoxicity for rat L6 cells to IC50 for Plasmodium falciparum K1; assay type: cell-based; details: read-out: FC
[2] = system: L6; experiment: Cytotoxicity against rat L6 cells; assay type: cell-based
[3] = system: Plasmodium falciparum; experiment: Antiplasmodial activity against chloroquine-resistant Plasmodium falciparum K1; assay type: functional, organism-based
[4] = system: Plasmodium berghei; experiment: Antiplasmodial activity as mean survival time against Plasmodium berghei infected mice (Mus musculus) at 4 x 20 mg/kg intraperitoneal dose; assay type: functional
[5] = system: Plasmodium berghei; experiment: Antiplasmodial activity as mean survival time against Plasmodium berghei infected mice (Mus musculus) at 4 x 10 mg/kg intraperitoneal dose; assay type: functional
[6] = system: Plasmodium berghei; experiment: Antiplasmodial activity as reduced parasitaemia against Plasmodium berghei infected mice (Mus musculus) at 4 x 50 mg/kg intraperitoneal dose; assay type: functional; design: scale not given: the % may be the effect or the level left
[7] = system: Plasmodium berghei; experiment: Antiplasmodial activity as reduced parasitaemia against Plasmodium berghei infected mice (Mus musculus) at 4 x 20 mg/kg intraperitoneal dose; assay type: functional; design: scale not given: the % may be the effect or the level left
[8] = system: Plasmodium berghei; experiment: Antiplasmodial activity as reduced parasitaemia against Plasmodium berghei infected mice (Mus musculus) at 4 x 10 mg/kg intraperitoneal dose; assay type: functional; design: scale not given: the % may be the effect or the level left
[9] = system: Plasmodium berghei; experiment: Antiplasmodial activity as mean survival time against Plasmodium berghei infected mice (Mus musculus) at 4 x 50 mg/kg intraperitoneal dose; assay type: functional
[10] = system: Plasmodium falciparum; experiment: Antiplasmodial activity against chloroquine-resistant Plasmodium falciparum K1 at 5 uM; assay type: functional

SMILES | selectivity ratio [1] | Activity [2] | IC50 [3] | MST [4] | MST [5] | Activity [6] | Activity [7] | Activity [8] | MST [9] | Activity [10]
Fc1ccc(Cn2c(N3CCN(CCCNc4ccnc5cc(Cl)ccc45)CC3)nc3ccccc32)cc1 | > 100 | 6.86 µM | 23 nM |  |  |  |  |  |  | 
Fc1ccc(Cn2c(N3CCC(Nc4ccnc5cc(Cl)ccc45)CC3)nc3ccccc32)cc1 | > 100 | 9.1 µM | 64 nM |  |  |  |  |  |  | 
Fc1ccc(Cn2c(NC3CCN(c4ccnc5cc(Cl)ccc45)CC3)nc3ccccc32)cc1 | > 100 | 8.8 µM | 37 nM | 8 days | 17 days | 99% | 80% | 99% | 13 days | 
Fc1ccc(Cn2c(N3CCN(c4ccnc5cc(Cl)ccc45)CC3)nc3ccccc32)cc1 | > 100 | 126 µM | 610 nM |  |  |  |  |  |  | 
COc1ccc(CCN2CCC(Nc3nc4ccccc4n3Cc3ccc(F)cc3)CC2)cc1 [ASTEMIZOLE] | > 100 |  |  |  |  |  |  |  |  | 50%
